Type in all cases: in vivo
Experiment [1] relates to mice fed a high fat diet for 20 weeks. Description: Bromocriptine plus GBR 12909 in mice fed a high fat diet. Particulars: BC 5 mg/kg, GBR 12909 5 mg/kg. The method, then:
The effects of adding GBR (a selective dopamine reuptake inhibitor) to bromocriptine (a dopamine D2 receptor agonist that can reduce central norepinephrine neuronal activity) in an effort to circumvent the impact of the D2 receptor agonist effect to reduce endogenous dopamine and to therefore improve metabolic disorders was examined in mice fed a high fat diet for 20 weeks and then treated with either vehicle, bromocriptine (BC) (5 mg/kg), GBR 12909 (5 mg/kg) or bromocriptine (5 mg/kg) plus GBR 12909 (5 mg/kg). […] Again, increasing central dopaminergic neuronal activity and decreasing central norepinephrine neuronal activity simultaneously produces synergistic reductions in metabolic disorders. […] BC alone had no effect on plasma insulin level (FIG. 21).

Experiment [2] concerns female ob/ob obese diabetic mice. Description: Bromocriptine plus GBR 12909 in ob/ob mice. Particulars: BC 10 mg/kg, GBR 12909 20 mg/kg, daily 14 days, relative to vehicle, FIG. 10. The method, then:
The effects of adding GBR (a selective dopamine reuptake inhibitor) to bromocriptine (a dopamine D2 receptor agonist that can reduce central norepinephrine neuronal activity) in an effort to circumvent the impact of the D2 receptor agonist effect to reduce endogenous dopamine and to therefore improve metabolic disorders was examined in ob/ob mice treated with either vehicle, bromocriptine (BC) (10 mg/kg), GBR 12909 (20 mg/kg) or bromocriptine (10 mg/kg) plus GBR 12909 (20 mg/kg). Female ob/ob obese diabetic mice were fed standard chow and different groups of animals (n=5-7 group) were treated daily for 14 days with bromocriptine (to reduce norepinephrine neuronal activity) (10 mg/kg), GBR 12909 (to increase dopaminergic neuronal activity) (20 mg/kg) or with bromocriptine (10 mg/kg) plus GBR 12909 (20 mg/kg), or vehicle. […] BC had no effect on blood glucose level.

The subject of experiment [3] is high fat fed, hypertensive SHR rats. Nature of the experiment: Quinelorane plus fusaric acid in high fat fed, hypertensive SHR rats. The settings on record: SHR rats on high fat diet. The method, then: Male SHR rats were maintained on 14 hour daily photoperiods and fed a high fat diet (60% of energy from fat; 5.24 kcal/gram weight) for 3 weeks and then divided into different groups and treated with either quinelorane (Q; a dopamine D2/D3 mixed receptor agonist) (0.075 mg/kg), fusaric acid (FA; a dopamine beta hydroxylase inhibitor) (12.5 mg/kg), quinelorane (0.075 mg/kg) plus FA (Q/FA) (12.5 mg/kg), or vehicle at 13 hours after light onset for 17 days. The doses of Q and FA were set at less than half maximal to effect central dopamine receptor binding functions and dopamine beta hydroxylase activity, respectively. […] Blood pressure measurements were taken at 14 days of treatment and animals were sacrificed at 18 days of treatment for analyses of body fat and humoral factors and metabolites. […] Respecting blood glucose, although both Q and FA reduced glucose level relative to vehicle, only the Q/FA regimen normalized blood glucose in these animals relative to vehicle (FIG. 6).

Experiment [4] relates to female mice fed a high fat diet for 20 weeks. Nature of the experiment: GBR 12909 plus fusaric acid in mice fed a high fat diet. On the procedure:
Female mice at 4 weeks of age were fed a high fat diet for 20 weeks to induce diabetes and insulin resistance and continued on such diet while treated for 14 days with either GBR 12909 (10 mg/kg), FA (15 mg/kg), GBR 12909 (10 mg/kg) plus FA (15 mg/kg), or vehicle and sacrificed after 14 days of treatment for the analyses of body fat, blood glucose, plasma insulin, and plasma nitric oxide levels. […] Only the GBR/FA group normalized plasma insulin levels. […] This effect was not observed with either GBR or FA treatments alone.

The subject of experiment [5] is female obese diabetic mice (ob/ob strain). Nature of the experiment: Bupropion plus fusaric acid in ob/ob mice. The settings on record: bupropion 40 mg/kg, FA 10 mg/kg, 14 days, relative to control, FIG. 9. The method, then: Female obese diabetic mice (ob/ob strain) at 6 weeks of age were fed standard rodent chow and different groups of animals (n=5-7/group) were treated with bupropion (40 mg/kg), FA (10 mg/kg), bupropion (40 mg/kg) plus FA (10 mg/kg), or vehicle for 14 days and then sacrificed for the analyses of blood glucose and body fat store level.

The test system of experiment [6] is obese, diabetic female ob/ob mice. Nature of the experiment: Fusaric acid plus SKF 38393 in ob/ob mice. The settings on record: fusaric acid 15 mg/kg, SKF 38393 10 mg/kg. The method, then: Fusaric acid is a dopamine beta hydroxylase inhibitor that reduces noradrenaline synthesis in noradrenergic neurons. It is not present in dopaminergic neurons and thus exerts no such effect there. SKF38393 is a post-synaptic dopamine D1 receptor agonist with no marked influence on noradrenergic neurons. A study was conducted to determine the interactive effects of fusaric acid plus SKF 38393 on body fat store levels, and blood glucose and plasma triglyceride levels in ob/ob mice. The ob/ob mouse is hyperphagic, obese, insulin resistant, diabeteic and dyslipidemic due to the absence of functional leptin as a result of a mutation in this gene.
Obese, diabetic female ob/ob mice (body weight of approximately 33 g) maintained on 14 hour daily photoperiods, housed one per cage and allowed to feed ad libitum were randomized to once daily treatment with either fusaric acid (15 mg/kg; n=6-8), SKF 38393 (10 mg/kg; n=6-8), both fusaric acid (15 mg/kg) and SKF 38393 (10 mg/kg) (n=6-8), or vehicle (control group; n=6-8) for a 14 day period. On the fifteenth day of the study and approximately 24 hours after the final treatment animals were sacrificed and blood samples were obtained for the analyses of blood glucose, plasma free fatty acid and triglyceride levels. Relative to controls, fusaric acid raised blood glucose from 380±30 mg/dl to 430±30 mg/dl and SKF 38393 reduced blood glucose to 290±55 mg/dl. However, fusaric acid plus SKF 38393 reduced blood glucose to 180±20 mg/dl. […] Neither fusaric acid nor SKF 38393 had any effect on retroperitoneal fat pad weight (735±43 mg and 735±50 mg, respectively versus control value of 727±25 mg) however, the combination of fusaric acid plus SKF 38393 reduced retroperitoneal fat pad weight to 680±25 mg.

With `CC(C)C[C@H]1C(=O)N2CCC[C@H]2[C@]2(O)O[C@](NC(=O)[C@@H]3C=C4c5cccc6[nH]c(Br)c(c56)C[C@H]4N(C)C3)(C(C)C)C(=O)N12` [bromocriptine], in experiment [1] (FIG. 21), the plasma insulin level result is reported as “no effect”. Also, the “HOMA-IR (insulin resistance)” value in experiment [1] (FIG. 22) is reported as “no significant effect”. For the same compound, the blood glucose level entry in experiment [2] is given as “no effect”.
Regarding `CCCCc1ccc(C(=O)O)nc1` [fusaric acid, 5-butyl-2-pyridinecarboxylic acid], the “change from baseline body weight (weight loss)” value in experiment [3] (Q 0.075 mg/kg, FA 12.5 mg/kg, 17 days, at 13 hours after light onset, FIGS. 1 and 2) was “modest if any effects”. The “plasma C-reactive protein (CRP) level” value in experiment [3] (relative to vehicle, 18 days of treatment) is on record as “no significant effect”. The blood glucose level entry in experiment [3] (relative to vehicle, FIG. 6) is “reduced”. Also, in experiment [4] (2 weeks of treatment, normal weight for age matched controls=28 grams, FIG. 15), the “body weight (normalization)” value is “not observed”. For the same compound, the “plasma insulin levels compared to lean, insulin sensitive, non-diabetic mice” value in experiment [4] (GBR 12909 10 mg/kg, FA 15 mg/kg, 14 days, FIG. 12) was “significantly higher”. In addition, the blood glucose result in experiment [5] is “no significant effect”; in experiment [6] (alone or both, once daily 14 days, controls 380±30) it was 430 ± 30 mg/dL. Moreover, the “retroperitoneal fat pad weight” value in experiment [6] (14 days, control value 727±25) is 735 ± 43 mg. Also, the plasma triglyceride level in experiment [6] (14 days, controls 155±15) was found to be 170 ± 27 mg/dL.
